{"source": "patent US20170319483A1", "about": "“METHOD FOR PRODUCING POROUS PARTICLE” (National Institute for Materials Science, priority 2014, published 2017)", "assay": "Theophylline release experiment in pH 7 phosphate buffer", "type": "physicochemical", "conditions": "FIG. 24", "procedure": "First, the porous particles containing theophylline of Application Examples of 4-1 to 4-4 were dispersed in a phosphate buffer solution of pH 7 at 200 mg/100 mL.\nNext, the solution was collected over time, filtered by a filter, and thereafter analyzed by high-performance liquid chromatography, and the concentration of theophylline in the solution was measured.", "data": [{"smiles": "Cn1c(=O)c2[nH]cnc2n(C)c1=O", "note": "[theophylline alone, theophylline]", "values": [{"measurement": "Theophylline release / dissolution behaviour", "value": "whole amount was dissolved instantaneously"}]}]}
